Assay results from ChEMBL document CHEMBL5291721, “A preclinical secondary pharmacology resource illuminates target-adverse drug reaction associations of marketed drugs” (Nat Commun, 2023).

How the values were obtained:
[1] = target: T1, Alpha-2A adrenergic receptor (Homo sapiens, UniProt P08913); assay type: functional, cell-based
T1 sequence (P08913 whole entry): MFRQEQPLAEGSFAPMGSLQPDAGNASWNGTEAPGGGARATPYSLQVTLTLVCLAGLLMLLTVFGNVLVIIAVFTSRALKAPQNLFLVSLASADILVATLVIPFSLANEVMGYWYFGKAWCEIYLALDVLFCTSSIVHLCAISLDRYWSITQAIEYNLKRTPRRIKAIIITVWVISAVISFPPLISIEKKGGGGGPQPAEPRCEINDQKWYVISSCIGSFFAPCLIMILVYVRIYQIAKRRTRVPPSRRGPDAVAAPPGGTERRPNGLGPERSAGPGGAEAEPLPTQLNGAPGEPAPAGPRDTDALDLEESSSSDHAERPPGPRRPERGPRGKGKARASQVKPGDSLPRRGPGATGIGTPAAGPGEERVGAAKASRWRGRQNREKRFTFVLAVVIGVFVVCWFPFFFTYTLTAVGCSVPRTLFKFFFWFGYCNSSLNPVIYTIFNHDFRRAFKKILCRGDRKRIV

[2] = target: T2, Thromboxane A2 receptor (Homo sapiens, UniProt P21731)
T2 sequence (P21731 whole entry): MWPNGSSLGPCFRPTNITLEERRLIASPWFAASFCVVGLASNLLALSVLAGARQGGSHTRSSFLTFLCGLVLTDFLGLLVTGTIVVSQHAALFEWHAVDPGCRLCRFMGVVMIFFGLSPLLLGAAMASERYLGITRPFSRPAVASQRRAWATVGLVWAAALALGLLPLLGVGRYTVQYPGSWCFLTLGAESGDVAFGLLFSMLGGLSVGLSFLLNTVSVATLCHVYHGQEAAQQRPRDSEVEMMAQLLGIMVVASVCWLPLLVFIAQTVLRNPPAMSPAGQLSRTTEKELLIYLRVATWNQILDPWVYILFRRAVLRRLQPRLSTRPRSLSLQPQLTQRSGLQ

[3] = target: T3, Neuropeptide Y receptor type 1 (Homo sapiens, UniProt P25929); conditions: read-out: AC50
T3 sequence (P25929 whole entry): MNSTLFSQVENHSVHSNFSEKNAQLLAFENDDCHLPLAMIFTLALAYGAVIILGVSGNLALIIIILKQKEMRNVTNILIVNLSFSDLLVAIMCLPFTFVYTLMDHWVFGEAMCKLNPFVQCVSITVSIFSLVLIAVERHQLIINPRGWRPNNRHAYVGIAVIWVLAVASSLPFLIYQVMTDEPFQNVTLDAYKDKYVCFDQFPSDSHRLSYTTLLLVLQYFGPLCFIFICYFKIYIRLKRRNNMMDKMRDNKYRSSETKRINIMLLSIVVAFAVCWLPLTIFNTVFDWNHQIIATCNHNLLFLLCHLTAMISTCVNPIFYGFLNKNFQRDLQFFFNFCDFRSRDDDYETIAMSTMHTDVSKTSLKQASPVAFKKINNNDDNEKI

[4] = target: T4, Amine oxidase [flavin-containing] A (Homo sapiens, UniProt P21397); assay type: functional
T4 sequence (P21397 whole entry): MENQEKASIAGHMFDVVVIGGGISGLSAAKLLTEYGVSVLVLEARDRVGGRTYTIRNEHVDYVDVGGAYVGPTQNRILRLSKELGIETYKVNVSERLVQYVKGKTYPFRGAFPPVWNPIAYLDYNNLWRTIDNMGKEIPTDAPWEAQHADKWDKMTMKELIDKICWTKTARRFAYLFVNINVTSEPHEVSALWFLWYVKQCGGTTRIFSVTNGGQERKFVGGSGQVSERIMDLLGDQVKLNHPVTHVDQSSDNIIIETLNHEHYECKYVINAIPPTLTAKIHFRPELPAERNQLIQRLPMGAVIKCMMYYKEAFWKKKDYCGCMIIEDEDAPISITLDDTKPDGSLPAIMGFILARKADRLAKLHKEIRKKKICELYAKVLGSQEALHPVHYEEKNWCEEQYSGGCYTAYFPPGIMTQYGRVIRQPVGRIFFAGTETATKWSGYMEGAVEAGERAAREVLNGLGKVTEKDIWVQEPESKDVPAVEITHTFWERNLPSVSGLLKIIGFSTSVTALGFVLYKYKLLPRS

[5] = target: T5, Alpha-2C adrenergic receptor (Homo sapiens, UniProt P18825); assay type: functional
T5 sequence (P18825 whole entry): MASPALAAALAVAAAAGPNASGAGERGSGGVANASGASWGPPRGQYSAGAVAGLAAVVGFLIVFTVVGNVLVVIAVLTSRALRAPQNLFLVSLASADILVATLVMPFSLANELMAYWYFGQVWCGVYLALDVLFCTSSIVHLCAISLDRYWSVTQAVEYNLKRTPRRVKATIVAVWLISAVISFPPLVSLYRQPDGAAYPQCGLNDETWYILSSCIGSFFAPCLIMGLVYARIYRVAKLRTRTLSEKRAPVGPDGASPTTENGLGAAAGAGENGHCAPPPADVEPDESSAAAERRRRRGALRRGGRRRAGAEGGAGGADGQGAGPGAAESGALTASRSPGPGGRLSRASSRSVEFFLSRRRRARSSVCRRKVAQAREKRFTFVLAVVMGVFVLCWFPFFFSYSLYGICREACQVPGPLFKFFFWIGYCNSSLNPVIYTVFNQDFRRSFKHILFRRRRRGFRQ

[6] = target: T6, Muscarinic acetylcholine receptor M2 (Homo sapiens, UniProt P08172); assay type: functional, cell-based
T6 sequence (P08172 whole entry): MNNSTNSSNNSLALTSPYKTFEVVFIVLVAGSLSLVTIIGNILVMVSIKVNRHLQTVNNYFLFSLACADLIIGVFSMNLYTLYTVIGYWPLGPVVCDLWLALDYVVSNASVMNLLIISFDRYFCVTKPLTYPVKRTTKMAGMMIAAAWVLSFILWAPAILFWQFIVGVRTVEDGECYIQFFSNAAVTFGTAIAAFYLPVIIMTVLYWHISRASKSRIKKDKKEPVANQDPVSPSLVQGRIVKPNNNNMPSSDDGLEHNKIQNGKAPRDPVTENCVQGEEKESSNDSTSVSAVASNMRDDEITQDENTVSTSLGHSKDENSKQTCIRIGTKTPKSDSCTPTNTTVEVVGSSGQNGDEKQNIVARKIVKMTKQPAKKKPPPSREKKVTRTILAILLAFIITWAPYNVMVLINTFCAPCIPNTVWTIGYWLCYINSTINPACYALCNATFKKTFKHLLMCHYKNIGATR
Further: assay procedure not described here.

Row | Compound | AC50 [1] [µM] | AC50 [2] [µM] | AC50 [3] [µM] | AC50 [4] [µM] | AC50 [5] [µM] | AC50 [6] [µM]
1 | CC(=O)SC[C@@H](C)C(=O)N1CCC[C@H]1C(=O)N[C@@H](Cc1ccccc1)C(=O)O | > 30 | > 30 | > 30 | > 30 | > 30 | > 30
2 | NC(=O)CN1CCCC1=O | > 30 | > 30 | > 30 | > 30 | > 30 | > 30
3 | C[N@+]1(CCF)[C@@H]2CC[C@H]1C[C@@H](OC(=O)C(O)(c1ccccc1)c1ccccc1)C2 | > 30 | > 30 | > 30 | > 30 | > 30 | > 30
4 | CC(=O)O[C@H](CC(=O)[O-])C[N+](C)(C)C [ACETYLCARNITINE] | > 30 | > 30 | > 30 | – | > 30 | > 30
5 | Cn1c(=O)cc(N2CCC[C@@H](N)C2)n(Cc2ccccc2C#N)c1=O [ALOGLIPTIN] | – | > 30 | > 30 | – | > 10 | –
6 | CCN1CCCC1CNC(=O)c1cc(S(=O)(=O)CC)c(N)cc1OC (configuration not stated) [AMISULPRIDE] | > 30 | – | > 30 | > 30 | 0.71 | > 30
7 | O=C(O)CCNC(=O)c1ccccc1 [BETAMIPRON] | > 30 | > 30 | > 30 | > 30 | > 30 | > 30
8 | O=C1CN=C(c2ccccn2)c2cc(Br)ccc2N1 [BROMAZEPAM] | > 10 | > 10 | > 10 | > 10 | > 10 | > 10
9 | Oc1ccc2c(c1)[C@@]13CCCC[C@@]1(O)[C@@H](C2)N(CC1CCC1)CC3 [BUTORPHANOL] | > 30 | – | > 30 | > 30 | > 30 | > 30
10 | C=C1/C(=C\C=C2/CCC[C@]3(C)[C@@H]([C@H](C)/C=C/[C@@H](O)C4CC4)CC[C@@H]23)C[C@@H](O)C[C@@H]1O [CALCIPOTRIENE] | > 30 | > 30 | > 30 | > 30 | > 30 | > 30
11 | CCN(CC)C(=O)Nc1ccc(OCC(O)CNC(C)(C)C)c(C(C)=O)c1 (configuration not stated) [CELIPROLOL] | > 30 | > 30 | > 30 | > 30 | > 30 | > 30
12 | C=C[C@@]1(C)CC(=O)[C@]2(O)[C@@]3(C)[C@@H](O)CCC(C)(C)[C@@H]3[C@H](O)[C@H](OC(C)=O)[C@@]2(C)O1 [COLFORSIN] | > 30 | > 30 | > 30 | > 30 | > 30 | 1.9
13 | CC(=O)[C@@]1(O)CC[C@H]2[C@@H]3C=C(Cl)C4=CC(=O)[C@@H]5C[C@@H]5[C@]4(C)[C@H]3CC[C@@]21C [CYPROTERONE] | > 10 | > 10 | > 10 | > 10 | > 10 | > 10
14 | COc1cc2ncnc(Nc3ccc(F)c(Cl)c3)c2cc1NC(=O)/C=C/CN1CCCCC1 [DACOMITINIB ANHYDROUS] | – | – | – | > 30 | 21 | > 30
15 | CC(=O)OCC(=O)[C@@]1(O)[C@H](C)C[C@H]2[C@@H]3CCC4=CC(=O)C=C[C@]4(C)[C@@]3(F)[C@@H](O)C[C@@]21C [DEXAMETHASONE ACETATE] | > 10 | 16 | > 30 | > 10 | > 10 | > 10
16 | CCCCCCCCCCCCCCCCCCCCCC(=O)Nc1ccn([C@@H]2O[C@H](CO)[C@@H](O)[C@@H]2O)c(=O)n1 [ENOCITABINE] | > 30 | > 30 | > 30 | > 30 | > 30 | > 30
17 | CCN(CC)CCN1C(=O)CN=C(c2ccccc2F)c2cc(Cl)ccc21 [FLURAZEPAM] | > 10 | > 30 | > 30 | > 10 | > 10 | > 10
18 | CCCCCC(=O)O[C@]1(C(C)=O)CC[C@H]2[C@@H]3CCC4=CC(=O)CC[C@]4(C)[C@H]3CC[C@@]21C [HYDROXYPROGESTERONE CAPROATE] | > 30 | > 30 | > 30 | > 30 | > 30 | > 30
19 | CC(=O)[C@]1(O)Cc2c(O)c3c(c(O)c2[C@@H](O[C@H]2C[C@H](N)[C@H](O)[C@H](C)O2)C1)C(=O)c1ccccc1C3=O [IDARUBICIN] | – | > 30 | > 10 | > 30 | – | –
20 | O=C(O)c1ccccc1Nc1cc(Cl)ccc1C(=O)O [LOBENZARIT] | > 30 | > 30 | > 30 | – | > 30 | > 30
21 | COc1ccc(-c2noc(CC(=O)O)c2-c2ccc(OC)cc2)cc1 [MOFEZOLAC] | > 30 | > 30 | > 30 | – | > 30 | > 30
22 | CN(C(=O)c1c(O)c2ccccc2n(C)c1=O)c1ccccc1 [ROQUINIMEX] | – | – | – | > 30 | > 30 | –
23 | OCc1cc(C(O)CNCCCCCCOCCCCc2ccccc2)ccc1O (configuration not stated) [SALMETEROL] | > 10 | > 30 | > 30 | > 10 | > 10 | –
24 | Cn1cnc2c(F)c(Nc3ccc(Br)cc3Cl)c(C(=O)NOCCO)cc21 [SELUMETINIB] | – | > 30 | – | > 10 | > 10 | –
25 | CC1=C(C)C(=O)C(C(CCCCCC(=O)O)c2ccccc2)=C(C)C1=O (configuration not stated) [SERATRODAST] | > 30 | – | > 30 | > 30 | > 30 | > 30
